“And” between values parts separate entries of the source, which are not always exact repeats. Equal entries are not always repeated. Where two headings read alike, the source gives them in different places.
Legend:
[1] = target: B. taurus (heart) complex I (Bos taurus, UniProt P03887+P17694+P42026); assay: biochemical; assay type: biochemical; settings: for IC50: heart mitochondria, read-out: B. taurus Complex I IC50
Outline: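 Complex I activity followed as DCIP reduction (600 nm, 30 s reads, 15 min) with 80 μM NADH and 60 μM decylubiquinone in 25 mM KPi pH 7.5 containing 2 μM antimycin A and 2 mM KCN. Freeze-thawed mouse or bovine heart mitochondria at 0.2 mg/mL; initial-rate percent of solvent control, single-point 100 μM or dose-response.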

[2] = test system: ben-1 mutant (ECA882) C. elegans; assay: microbe, parasite or virus in culture; settings: for LC50: Caenorhabditis elegans; for C. elegans L1 relative development & viability: ECA882 deletion (ben-1); for C. elegans L1 relative development & viability (score 0-1 relative to DMSO controls): strain ECA882, deletion (ben-1)
Description: Liquid development and viability assays were adapted from a previously established chemical screening protocol (Burns et al.)[24]. In brief, a saturated culture of E. coli HB101 was concentrated 2-fold in liquid NGM and 40 μL of this suspension was distributed to each well of a 96-well flat-bottom culture plate. 0.5 μL chemical solution (or DMSO alone) was added to each well (1% DMSO v/v) using either a multi-channel pipette or a pinning tool (V&P Scientific). L1 worms synchronized from an embryo preparation performed the day prior were diluted to a concentration of ~2 worms/μL in M9 buffer; 10 μL worm suspension was then added to each well. Culture plates were sealed with parafilm and placed in a plastic container lined with wet paper towels to prevent evaporation. Containers were then incubated for 6 days at 20 °C with shaking at 165 rpm. Following incubation, 300 μL M9 was added to each well to decrease the turbidity of the HB101-NGM suspension. Single images of each microplate well were then taken on a Nikon Ti Eclipse inverted microscope (Nikon NIS Elements AR). Images were processed using Python scripts to isolate worm-associated pixels from background. Scores of worm development and viability were determined as the sum of worm-associated pixels in each well. Development/viability scores for each well were divided by the development /viability scores for the corresponding DMSO controls, resulting in a relative viability value for each chemical. At least three biological replicates were performed for each dose-response experiment; relative viability values were averaged across replicates. […]
anthelmintics. a. Chemical structures of four commercial benzimidazole anthelmintics (e.g., albendazole, […]
Dose response of four commercial […]
elegans strains: N2, wild type; ECA882, deletion (ben-1); ECA917, F200Y (ben-1); ECA1075, F167Y (ben-1); ECA1080, E198A (ben-1); CB3474, G104D (ben-1). The colour-coded scale denotes the phenotypic outcome of drug treatment (e.g., motility or viability) relative to DMSO controls; white/pale- […]
death and arrested development. c. […]
benzimidazole anthelmintics (blue) were conducted in C. elegans development and viability assays for wild type (N2) and ben-1 mutant (ECA882) C. elegans (see Supplementary Date File 1).
All data used for generation of dose-response curves is the mean of at least three […]
Supplementary Figure 7 (continued). Davie et al.

[3] = read-out: C. elegans ben-1 LC50
[4] = read-out: C. elegans ben-1 log10 LC50 (converted)
[5] = 15.6 µM, score 0-1 relative to DMSO, values >1 set to 1
[6] = 31.3 µM, score 0-1 relative to DMSO, values >1 set to 1
[7] = 1 µM, score 0-1 relative to DMSO, values >1 set to 1
[8] = 2 µM, score 0-1 relative to DMSO, values >1 set to 1
[9] = 3.9 µM, score 0-1 relative to DMSO, values >1 set to 1

Chain of B. taurus (heart) complex I (P03887 whole entry): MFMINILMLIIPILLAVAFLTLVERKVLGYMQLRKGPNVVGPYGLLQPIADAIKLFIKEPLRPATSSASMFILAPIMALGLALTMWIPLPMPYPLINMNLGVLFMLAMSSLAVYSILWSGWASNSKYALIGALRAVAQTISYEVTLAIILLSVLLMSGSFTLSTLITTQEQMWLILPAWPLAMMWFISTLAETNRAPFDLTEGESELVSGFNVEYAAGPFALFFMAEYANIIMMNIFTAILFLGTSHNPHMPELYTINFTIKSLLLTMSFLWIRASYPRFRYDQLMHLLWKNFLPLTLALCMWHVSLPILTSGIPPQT
Chain of B. taurus (heart) complex I (P17694 34-463): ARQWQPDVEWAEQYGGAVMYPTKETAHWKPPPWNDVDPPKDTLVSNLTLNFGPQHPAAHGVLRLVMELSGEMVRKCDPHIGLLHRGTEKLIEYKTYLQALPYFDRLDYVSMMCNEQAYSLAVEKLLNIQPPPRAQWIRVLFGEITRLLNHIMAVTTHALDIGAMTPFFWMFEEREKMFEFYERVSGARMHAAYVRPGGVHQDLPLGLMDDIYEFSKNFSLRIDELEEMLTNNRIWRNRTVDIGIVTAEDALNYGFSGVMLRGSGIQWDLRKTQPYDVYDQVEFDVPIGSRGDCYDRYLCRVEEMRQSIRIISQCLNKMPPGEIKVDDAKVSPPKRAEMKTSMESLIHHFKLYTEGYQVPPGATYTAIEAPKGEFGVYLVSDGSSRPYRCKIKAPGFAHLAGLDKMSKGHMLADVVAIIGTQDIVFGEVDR
Chain of B. taurus (heart) complex I (P42026 38-216): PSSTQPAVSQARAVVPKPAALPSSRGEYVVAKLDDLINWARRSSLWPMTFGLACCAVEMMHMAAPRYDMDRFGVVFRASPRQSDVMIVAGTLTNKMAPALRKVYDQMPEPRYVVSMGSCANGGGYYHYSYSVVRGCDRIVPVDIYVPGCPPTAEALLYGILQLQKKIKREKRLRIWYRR

COc1cc2c(cc1OC)C(C(C)c1ccc(CC(C)C)cc1)=NCC2 (centres unmarked) [NPD10504]
activity at 0.0001 µM ([1]; B. taurus, dose 0.0001 µM, Mean of replicates, read-out: Complex I activity, dose-response data): 107% | Complex I activity, dose-response data ([1]; B. taurus, dose 0.0001 µM, individual replicates (Rep)): 117.793 and 105.069 and 91.702 and 112.227 | activity at 0.0005 µM ([1]; B. taurus, dose 0.0005 µM, Mean of replicates, read-out: Complex I activity, dose-response data): 106% | Complex I activity, dose-response data ([1]; B. taurus, dose 0.0005 µM, individual replicates (Rep)): 109.504 and 97.187 and 111.197 | activity at 0.0005 µM ([1]; B. taurus, dose 0.0005 µM, individual replicates (Rep), read-out: Complex I activity, dose-response data): 106% | activity at 0.001 µM ([1]; B. taurus, dose 0.001 µM, Mean of replicates, read-out: Complex I activity, dose-response data): 99.9% | Complex I activity, dose-response data ([1]; B. taurus, dose 0.001 µM, individual replicates (Rep)): 98.069 and 105.385 and 87.764 and 108.494 | activity at 0.0025 µM ([1]; B. taurus, dose 0.0025 µM, Mean of replicates, read-out: Complex I activity, dose-response data): 103% | Complex I activity, dose-response data ([1]; B. taurus, dose 0.0025 µM, individual replicates (Rep)): 100.000 and 97.046 and 110.425 | activity at 0.0025 µM ([1]; B. taurus, dose 0.0025 µM, individual replicates (Rep), read-out: Complex I activity, dose-response data): 106% | activity at 0.005 µM ([1]; B. taurus, dose 0.005 µM, Mean of replicates, read-out: Complex I activity, dose-response data): 95.2% | Complex I activity, dose-response data ([1]; B. taurus, dose 0.005 µM, individual replicates (Rep)): 92.608 and 94.796 and 95.624 | activity at 0.005 µM ([1]; B. taurus, dose 0.005 µM, individual replicates (Rep), read-out: Complex I activity, dose-response data): 97.7% | activity at 0.013 µM ([1]; B. taurus, dose 0.013 µM, Mean of replicates, read-out: Complex I activity, dose-response data): 101% | Complex I activity, dose-response data ([1]; B. taurus, dose 0.013 µM, individual replicates (Rep)): 117.931 and 88.068 and 92.546 and 105.663 | activity at 0.025 µM ([1]; B. taurus, dose 0.025 µM, Mean of replicates, read-out: Complex I activity, dose-response data): 101% | Complex I activity, dose-response data ([1]; B. taurus, dose 0.025 µM, individual replicates (Rep)): 94.298 and 94.233 and 109.524 | activity at 0.025 µM ([1]; B. taurus, dose 0.025 µM, individual replicates (Rep), read-out: Complex I activity, dose-response data): 107% | activity at 0.063 µM ([1]; B. taurus, dose 0.063 µM, Mean of replicates, read-out: Complex I activity, dose-response data): 90.7% | Complex I activity, dose-response data ([1]; B. taurus, dose 0.063 µM, individual replicates (Rep)): 92.397 and 91.561 and 90.734 | activity at 0.063 µM ([1]; B. taurus, dose 0.063 µM, individual replicates (Rep), read-out: Complex I activity, dose-response data): 88% | activity at 0.125 µM ([1]; B. taurus, dose 0.125 µM, Mean of replicates, read-out: Complex I activity, dose-response data): 83.6% | Complex I activity, dose-response data ([1]; B. taurus, dose 0.125 µM, individual replicates (Rep)): 80.676 and 85.091 and 80.824 | activity at 0.125 µM ([1]; B. taurus, dose 0.125 µM, individual replicates (Rep), read-out: Complex I activity, dose-response data): 87.9% | activity at 0.313 µM ([1]; B. taurus, dose 0.313 µM, Mean of replicates, read-out: Complex I activity, dose-response data): 98% | Complex I activity, dose-response data ([1]; B. taurus, dose 0.313 µM, individual replicates (Rep)): 97.994 and 101.828 and 86.358 | activity at 0.313 µM ([1]; B. taurus, dose 0.313 µM, individual replicates (Rep), read-out: Complex I activity, dose-response data): 106% | activity at 0.625 µM ([1]; B. taurus, dose 0.625 µM, Mean of replicates, read-out: Complex I activity, dose-response data): 101% | Complex I activity, dose-response data ([1]; B. taurus, dose 0.625 µM, individual replicates (Rep)): 121.834 and 83.881 and 99.417 and 98.267 | activity at 1.5 µM ([1]; B. taurus, dose 1.5 µM, Mean of replicates, read-out: Complex I activity, dose-response data): 96.4% | Complex I activity, dose-response data ([1]; B. taurus, dose 1.5 µM, individual replicates (Rep)): 115.721 and 89.117 and 89.942 and 90.667 | activity at 3 µM ([1]; B. taurus, dose 3 µM, Mean of replicates, read-out: Complex I activity, dose-response data): 85.9% | Complex I activity, dose-response data ([1]; B. taurus, dose 3 µM, individual replicates (Rep)): 100.146 and 69.610 and 88.192 and 85.467 | activity at 15 µM ([1]; B. taurus, dose 15 µM, Mean of replicates, read-out: Complex I activity, dose-response data): 36.5% | Complex I activity, dose-response data ([1]; B. taurus, dose 15 µM, individual replicates (Rep)): 38.809 and 32.507 and 35.200 | activity at 15 µM ([1]; B. taurus, dose 15 µM, individual replicates (Rep), read-out: Complex I activity, dose-response data): 39.3% | activity at 37.5 µM ([1]; B. taurus, dose 37.5 µM, Mean of replicates, read-out: Complex I activity, dose-response data): 5.69% | Complex I activity, dose-response data ([1]; B. taurus, dose 37.5 µM, individual replicates (Rep)): 3.348 and 10.986 and 0.292 and 8.133 | activity at 75 µM ([1]; B. taurus, dose 75 µM, Mean of replicates, read-out: Complex I activity, dose-response data): 3.63% | Complex I activity, dose-response data ([1]; B. taurus, dose 75 µM, individual replicates (Rep)): 0.000 and 11.602 and 2.933 | IC50 [1]: 11.3 µM

c1ccc2[nH]c(-c3cscn3)nc2c1 [Thiabendazole]
LC50 [2, 3]: 375 µM | LC50 [2, 4]: 375 µM | C. elegans L1 relative development & viability ([2]; 1 µM, […]): 0.926 | C. elegans L1 relative development & viability ([2]; 2 µM, […]): 0.954 | C. elegans L1 relative development & viability ([2]; 3.9 µM, […]): 0.969 | C. elegans L1 relative development & viability [2, 5]: 0.996 | C. elegans L1 relative development & viability [2, 6]: 1.000 | C. elegans L1 relative development & viability ([2]; 62.5 µM, score 0-1 relative to DMSO, values >1 set to 1): 1.000 | C. elegans L1 relative development & viability ([2]; 125 µM, score 0-1 relative to DMSO, values >1 set to 1): 1.000 | C. elegans L1 relative development & viability ([2]; 250 µM, […]): 0.967 | C. elegans L1 relative development & viability ([2]; 500 µM, […]): 0.155

CC(C)(C)c1ccc(CCOc2ncnc3ccccc23)cc1 [Fenazaquin, reference compound]
IC50 [1]: 0.024 µM

COC(=O)Nc1nc2ccc(C(=O)c3ccccc3)cc2[nH]1 [mebendazole, reference compound]
LC50 [2, 3]: > 250 µM | LC50 [2, 4]: > 250 µM | C. elegans L1 relative development & viability [2, 7]: 1.000 | C. elegans L1 relative development & viability [2, 8]: 1.000 | C. elegans L1 relative development & viability [2, 9]: 1.000 | C. elegans L1 relative development & viability [2, 5]: 1.000 | C. elegans L1 relative development & viability [2, 6]: 1.000 | C. elegans L1 relative development & viability ([2]; 62.5 µM, […]): 0.948 | C. elegans L1 relative development & viability ([2]; 125 µM, […]): 0.701 | C. elegans L1 relative development & viability ([2]; 250 µM, […]): 0.623

COC(=O)Nc1nc2ccc(Sc3ccccc3)cc2[nH]1 [fenbendazole, reference compound]
C. elegans L1 relative development & viability (score 0-1 relative to DMSO controls) ([2]; 1 µM): 1.000 | C. elegans L1 relative development & viability (score 0-1 relative to DMSO controls) ([2]; 2 µM): 1.000 | C. elegans L1 relative development & viability (score 0-1 relative to DMSO controls) ([2]; 3.9 µM): 1.000 | C. elegans L1 relative development & viability (score 0-1 relative to DMSO controls) ([2]; 15.6 µM): 0.861 | C. elegans L1 relative development & viability (score 0-1 relative to DMSO controls) ([2]; 31.3 µM): 0.962 | C. elegans L1 relative development & viability (score 0-1 relative to DMSO controls) ([2]; 62.5 µM): 0.936 | C. elegans L1 relative development & viability (score 0-1 relative to DMSO controls) ([2]; 125 µM): 0.785 | C. elegans L1 relative development & viability (score 0-1 relative to DMSO controls) ([2]; 250 µM): 0.877 | C. elegans L1 relative development & viability (score 0-1 relative to DMSO controls) ([2]; 500 µM): 0.667 | LC50 [2, 3]: > 500 µM | LC50 [2, 4]: > 500 µM | C. elegans L1 relative development & viability [2, 7]: 1.000 | C. elegans L1 relative development & viability [2, 8]: 1.000 | C. elegans L1 relative development & viability [2, 9]: 1.000 | C. elegans L1 relative development & viability ([2]; 15.6 µM, […]): 0.861 | C. elegans L1 relative development & viability ([2]; 31.3 µM, […]): 0.962 | C. elegans L1 relative development & viability ([2]; 62.5 µM, […]): 0.936 | C. elegans L1 relative development & viability ([2]; 125 µM, […]): 0.785 | C. elegans L1 relative development & viability ([2]; 250 µM, […]): 0.877 | C. elegans L1 relative development & viability ([2]; 500 µM, […]): 0.667

Reference: article PMC11079024, “Identification of a family of species-selective complex I inhibitors as potential anthelmintics” (Nature Communications, 2024)
